# pEC50, pIC50: −log10 of the molar value.
# What was measured:
# PC3 = assay: cells; settings: Homo sapiens, PC-3, read-out: Absolute EC50, growth inhibition
# γH2AX foci in A549 cells = assay: γH2AX foci, Cellomics ArrayScan high-content microscopy; assay type: cell-based, human; settings: 50 μM, 24 h after exposure to IR
# Text: We tested this prediction by monitoring RAD51 foci formation after the exposure of A549 non-small cell lung carcinoma (NSCLC) cells to ionizing radiation (IR), using a robust cell-based assay based on high-content microscopy with the Cellomics ArrayScan V^TI, to objectively enumerate RAD51 foci ([Jeyasekharan et al., 2013]). IR-induced DNA breakage was monitored in the same experiment by enumerating foci containing γH2AX, a phosphorylated form of histone H2AX that is formed at DNA breaks ([Rogakou et al., 1998]).
# For detection of γH2AX foci in A549 cells, 10,000 cells/well (1x10^5 cells/ml) were seeded in 100 μl and left to grow overnight before treatment with compound. Cells were subsequently exposed to compounds and either 3 Gy ionising radiation or mock treated (left on the bench at room temperature). Staining protocol was identical as for RAD51 foci but anti-phospho γH2AX primary mouse monoclonal antibody was used (Millipore, cat#05-636) at 1:2000 dilution. Image analysis was done using Cellomics software.
# 5637 = assay: cells; settings: Homo sapiens, read-out: Absolute EC50, growth inhibition
# SK-MEL-24 = assay: cells; settings: Homo sapiens, SK-MEL-24, read-out: Absolute EC50, growth inhibition
# T.Tn = assay: cells; settings: Homo sapiens, read-out: Absolute EC50, growth inhibition
# U87 = assay: cells; settings: Homo sapiens, U-87 MG, read-out: Absolute EC50, growth inhibition
# U118MG = assay: cells; settings: Homo sapiens, U-118-MG, read-out: Absolute EC50, growth inhibition
# HT1367 = assay: cells; settings: Homo sapiens, read-out: Absolute EC50, growth inhibition
# CYP450 2C19 = target: T1, CYP450 2C19 (Homo sapiens, UniProt P33261); assay: CYP450 inhibition; assay type: in vitro ADME
# T1 construct: Cyprotex (contract data)
# T1 sequence (P33261 whole entry): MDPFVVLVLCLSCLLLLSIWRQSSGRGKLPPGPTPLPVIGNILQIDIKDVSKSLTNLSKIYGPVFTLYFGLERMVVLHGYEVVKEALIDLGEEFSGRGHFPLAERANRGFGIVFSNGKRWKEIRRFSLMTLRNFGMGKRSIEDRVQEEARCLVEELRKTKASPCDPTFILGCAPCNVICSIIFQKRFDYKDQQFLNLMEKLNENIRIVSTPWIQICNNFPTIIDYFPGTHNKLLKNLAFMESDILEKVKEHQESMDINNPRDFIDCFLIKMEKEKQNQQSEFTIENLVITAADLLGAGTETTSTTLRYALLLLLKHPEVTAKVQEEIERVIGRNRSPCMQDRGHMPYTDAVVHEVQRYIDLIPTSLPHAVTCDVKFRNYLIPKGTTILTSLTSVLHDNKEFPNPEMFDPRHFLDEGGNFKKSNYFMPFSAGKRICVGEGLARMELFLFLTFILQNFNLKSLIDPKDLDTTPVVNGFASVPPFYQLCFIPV
# SW756 = assay: cells; settings: Homo sapiens, SW756, read-out: Absolute EC50, growth inhibition
# Mia-pa-ca2 = assay: cells; settings: Homo sapiens, MIA PaCa-2, read-out: Absolute EC50, growth inhibition
# A375 = assay: cells; settings: Homo sapiens, A-375, read-out: Absolute EC50, growth inhibition
# CYP450 1A2 = target: T2, CYP450 1A2 (Homo sapiens, UniProt P05177); assay: CYP450 inhibition; assay type: in vitro ADME
# T2 construct: Cyprotex (contract data)
# T2 sequence (P05177 whole entry): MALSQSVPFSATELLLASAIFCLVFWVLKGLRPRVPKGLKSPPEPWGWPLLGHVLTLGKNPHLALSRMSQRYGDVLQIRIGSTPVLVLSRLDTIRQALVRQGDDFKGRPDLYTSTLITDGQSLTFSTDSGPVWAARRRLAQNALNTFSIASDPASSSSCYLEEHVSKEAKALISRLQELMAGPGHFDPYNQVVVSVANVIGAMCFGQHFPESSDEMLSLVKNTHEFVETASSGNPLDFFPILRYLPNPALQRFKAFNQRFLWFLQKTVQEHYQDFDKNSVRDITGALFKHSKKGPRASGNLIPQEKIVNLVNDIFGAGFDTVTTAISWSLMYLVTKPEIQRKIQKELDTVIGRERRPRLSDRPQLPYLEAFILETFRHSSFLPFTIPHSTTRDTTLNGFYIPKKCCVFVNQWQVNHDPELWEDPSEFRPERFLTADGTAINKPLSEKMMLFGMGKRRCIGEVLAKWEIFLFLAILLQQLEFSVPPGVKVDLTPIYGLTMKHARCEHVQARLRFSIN
# NCI-H209 = assay: cells; settings: Homo sapiens, NCI-H209, read-out: Absolute EC50, growth inhibition
# CYP450 3A4 = target: T3, CYP450 3A4 (Homo sapiens, UniProt P08684); assay: CYP450 inhibition; assay type: in vitro ADME
# T3 construct: Cyprotex (contract data)
# T3 sequence (P08684 whole entry): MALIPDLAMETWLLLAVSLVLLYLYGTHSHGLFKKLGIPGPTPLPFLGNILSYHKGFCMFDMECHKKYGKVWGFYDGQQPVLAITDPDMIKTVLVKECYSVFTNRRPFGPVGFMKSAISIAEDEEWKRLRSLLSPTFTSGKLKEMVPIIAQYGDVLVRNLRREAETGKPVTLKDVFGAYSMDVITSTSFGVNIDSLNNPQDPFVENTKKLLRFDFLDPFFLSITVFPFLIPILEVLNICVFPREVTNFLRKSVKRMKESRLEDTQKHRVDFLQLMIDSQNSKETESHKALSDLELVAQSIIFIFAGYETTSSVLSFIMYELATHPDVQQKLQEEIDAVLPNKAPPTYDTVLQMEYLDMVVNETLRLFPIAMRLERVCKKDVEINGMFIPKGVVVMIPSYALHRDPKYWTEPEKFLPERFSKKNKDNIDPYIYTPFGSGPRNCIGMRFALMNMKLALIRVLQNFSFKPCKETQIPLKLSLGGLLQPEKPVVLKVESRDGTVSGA
# OVCAR3 = assay: cells; settings: Homo sapiens, OVCAR-3, read-out: Absolute EC50, growth inhibition
# [1] = test system: HCT116 colon carcinoma cells; assay: Cell-cycle profiling by flow cytometry (propidium iodide); assay type: cell-based, human; settings: HCT116, 20 μM CAM833 and 3 Gy IR
# Text: Genetic inactivation of RAD51 enhances cellular sensitivity to ionizing radiation, accompanied by cell-cycle arrest at the G2 checkpoint for DNA damage ([Sonoda et al., 1998]; [Su et al., 2008]). We hypothesized that similar effects would be triggered by the exposure of cells to CAM833. […] Over time, there is a drop in the percentage of cells with 4N DNA in both treated and control groups. However, whereas in the control the percentage of cells in the apoptotic subG1 fraction remains below 5% throughout, in the compound-treated cells this rises progressively to peak at 15% at 48 hours (Figure 5D).
# Propidium iodide staining solution (PI solution) was used at the following final concentrations: 200 ug/ml RNAase A (Sigma Aldrich, cat# 10109169001), 0.1% Triton-X 100 (v/v) and 20 ug/ml of propidium iodide solution diluted in 1x PBS. HCT116 cells were grown in 6-well plates in a total volume of 2 ml and treated with either test compound or DMSO control for the designated time. After treatment, medium was collected from the cells which were then washed in 1x PBS then removed from the plastic by the addition of in 500 μl Trypsin/EDTA until cells were monodispersed. The trypsin was neutralised by the removed media and the cell suspension was spun at 1000 rpm for 5 minutes. […] Cells were then counted and analysed using a Becton Dickinson LSR II cytometer and FCS Express software.
# MDA-MB-453 = assay: cells; settings: Homo sapiens, MDA-MB-453, read-out: Absolute EC50, growth inhibition
# hERG = hERG (Homo sapiens, UniProt Q12809); assay: hERG electrophysiology (whole-cell voltage-clamping); settings: @ 10 uM, whole-cell voltage-clamping in mammalian cells
# hERG, sequence (Q12809 whole entry): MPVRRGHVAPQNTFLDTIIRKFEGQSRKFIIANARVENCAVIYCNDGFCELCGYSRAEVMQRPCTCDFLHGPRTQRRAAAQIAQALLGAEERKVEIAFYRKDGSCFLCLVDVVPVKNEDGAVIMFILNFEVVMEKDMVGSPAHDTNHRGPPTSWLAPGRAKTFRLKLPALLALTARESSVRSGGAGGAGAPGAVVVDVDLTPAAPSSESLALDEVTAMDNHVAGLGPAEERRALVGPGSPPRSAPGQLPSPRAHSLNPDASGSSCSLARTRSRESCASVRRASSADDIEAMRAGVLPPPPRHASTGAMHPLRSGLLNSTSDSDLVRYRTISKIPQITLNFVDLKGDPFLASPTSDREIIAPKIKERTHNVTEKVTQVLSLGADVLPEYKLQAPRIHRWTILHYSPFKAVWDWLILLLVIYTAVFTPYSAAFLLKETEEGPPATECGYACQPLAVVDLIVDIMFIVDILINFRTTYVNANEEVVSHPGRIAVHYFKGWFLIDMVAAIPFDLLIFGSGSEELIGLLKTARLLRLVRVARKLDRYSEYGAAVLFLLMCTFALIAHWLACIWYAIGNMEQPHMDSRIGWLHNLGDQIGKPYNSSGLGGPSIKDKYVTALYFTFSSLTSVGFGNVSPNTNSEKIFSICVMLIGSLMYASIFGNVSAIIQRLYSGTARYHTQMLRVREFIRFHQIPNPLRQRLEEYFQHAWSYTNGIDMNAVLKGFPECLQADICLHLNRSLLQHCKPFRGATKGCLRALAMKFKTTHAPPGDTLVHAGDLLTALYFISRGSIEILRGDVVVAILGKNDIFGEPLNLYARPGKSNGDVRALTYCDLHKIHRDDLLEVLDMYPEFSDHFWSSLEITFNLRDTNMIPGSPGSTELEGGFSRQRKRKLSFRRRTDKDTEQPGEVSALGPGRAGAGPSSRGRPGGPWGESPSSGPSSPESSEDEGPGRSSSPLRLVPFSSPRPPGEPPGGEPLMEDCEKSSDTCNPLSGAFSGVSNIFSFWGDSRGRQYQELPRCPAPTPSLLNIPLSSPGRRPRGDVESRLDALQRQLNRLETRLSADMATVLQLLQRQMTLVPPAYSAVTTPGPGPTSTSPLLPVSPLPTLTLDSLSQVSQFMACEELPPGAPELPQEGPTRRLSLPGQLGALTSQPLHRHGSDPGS
# HepG2 = assay: cells; settings: Homo sapiens, HepG2, read-out: Absolute EC50, growth inhibition
# CYP450 2C9 = target: T4, CYP450 2C9 (Homo sapiens, UniProt P11712); assay: CYP450 inhibition; assay type: in vitro ADME
# T4 construct: Cyprotex (contract data)
# T4 sequence (P11712 whole entry): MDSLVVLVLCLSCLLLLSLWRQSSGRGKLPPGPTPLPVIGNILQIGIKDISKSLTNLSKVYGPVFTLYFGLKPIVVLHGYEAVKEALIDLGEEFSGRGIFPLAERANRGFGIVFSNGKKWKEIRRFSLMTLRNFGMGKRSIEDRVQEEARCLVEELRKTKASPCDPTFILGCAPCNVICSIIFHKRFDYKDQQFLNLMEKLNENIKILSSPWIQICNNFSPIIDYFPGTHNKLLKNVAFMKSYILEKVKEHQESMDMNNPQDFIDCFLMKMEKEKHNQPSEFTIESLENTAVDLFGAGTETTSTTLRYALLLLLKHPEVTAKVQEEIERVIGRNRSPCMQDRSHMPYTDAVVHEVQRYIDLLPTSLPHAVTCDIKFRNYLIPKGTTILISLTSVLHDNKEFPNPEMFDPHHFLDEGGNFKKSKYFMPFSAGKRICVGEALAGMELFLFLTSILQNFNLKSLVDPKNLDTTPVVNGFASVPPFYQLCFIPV
# HL-60 = assay: cells; settings: Homo sapiens, HL-60, read-out: Absolute EC50, growth inhibition
# T24/83 = assay: cells; settings: Homo sapiens, T24/83, read-out: Absolute EC50, growth inhibition
# BT549 = assay: cells; settings: Homo sapiens, BT-549, read-out: Absolute EC50, growth inhibition
smiles,measurement,setting,value
"COc1ccc([C@H](C)NC(=O)[C@@H]2C[C@@H](O)CN2C(=O)CNC(=O)c2ccc3cc(F)ccc3n2)c(Cl)c1 [CAM833, N-(2-((2S,4R)-2-(((S)-1-(2-chloro-4-methoxyphenyl)ethyl)carbamoyl)-4-hydroxypyrrolidin-1-yl)-2-oxoethyl)-6-fluoroquinoline-2-carboxamide]",pEC50,PC3,4.04
same,increase of γH2AX foci formation compared with control-treated cells,γH2AX foci in A549 cells,approximately 4 fold
same,pEC50,5637,4.07
same,pEC50,SK-MEL-24,3.84
same,pEC50,T.Tn,4.25
same,pEC50,U87,3.96
same,pEC50,U118MG,4.04
same,pEC50,HT1367,3.98
same,pIC50,CYP450 2C19,< 4.60
same,pEC50,SW756,3.91
same,pEC50,Mia-pa-ca2,4.16
same,pEC50,A375,4.14
same,pIC50,CYP450 1A2,< 4.60
same,pEC50,NCI-H209,4.16
same,pIC50,CYP450 3A4; 3A4 midazolam site,< 4.60
same,pIC50,CYP450 3A4; 3A4 testosterone site,< 4.60
same,pEC50,OVCAR3,4.27
same,percentage of cells with 4N DNA (in words),[1]; 4 hours after irradiation,causes an increase
same,"percentage of cells in the apoptotic subG1 fraction, peak",[1]; at 48 hours,15%
same,pEC50,MDA-MB-453,4.32
same,Inhibition of hERG tail-currents,hERG,12%
same,pEC50,HepG2,4.17
same,pIC50,CYP450 2C9,< 4.60
same,pEC50,HL-60,4.06
same,pEC50,T24/83,4.01
same,pEC50,BT549,4.13
